Data as given in patent US20080242681A1, “N-4-(6-(Hetero)Aryl-Pyrimidin-4-Ylaminophenyl)-Benzenesulfonamides as Kinase Inhibitors” (Altana Pharma AG, priority 2004, published 2008).
Structures can show the parent of a compound that is named as a salt.

What was measured:
Rsk1 = target: T1, Rsk1 (Homo sapiens, UniProt Q15418); assay: Rsk1 KinaseProfiler assay (Upstate); type: biochemical; conditions: human recombinant Rsk, externally tested (IC50Profiler, Upstate), 10 μM ATP; read-out: IC50, inhibition of Rsk1
T1 construct: purchased Upstate ltd, Dundee, UK (external KinaseProfiler service)
Method: To investigate the effect of a test compound on p90 ribosomal S6 kinase (Rsk) family, the compounds are externally tested in KinaseProfiler assay (Upstate ltd, Dundee, UK) described in product guide brochure. In brief, in a final reaction volume of 25 μl, 5-10 mU of human recombinant Rsk are incubated with 8 mM MOPS pH 7.0, 0.2 mM EDTA, 30 μM KKKNRTLSVA, 10 mM MgAcetate and 10 μM [γ-33P-ATP]. The reaction is initiated by addition of the MgATP mix. After incubation for 40 minutes at RT, the reaction is stopped by the addition of 5 μl of a 3% phosphoric acid solution. 10 μl of the reaction is then spotted onto P30 filtermat and washed three times for 5 minutes in 75 mM phosphoric acid and once in methanol prior to drying and scintillation counting. The IC50 value is estimated by preparing a 10 point curve using a ½ log dilution series (IC50Profiler, Upstate). The examples 129, 431 and 173 inhibit Rsk1 in this assay with an IC50<1 μM.

PKCι = target: T2, PKCι (Homo sapiens, UniProt P41743); assay: Protein Kinase C ι assay (SPA); type: biochemical; conditions: human recombinant PKCι from Sf21 insect cells, absence of PMA and phosphatidylserine, read-out: IC50, inhibition of PKC ι
T2 construct: made in house; host or cells: Sf21 insect cells
T2 sequence (P41743 1-596): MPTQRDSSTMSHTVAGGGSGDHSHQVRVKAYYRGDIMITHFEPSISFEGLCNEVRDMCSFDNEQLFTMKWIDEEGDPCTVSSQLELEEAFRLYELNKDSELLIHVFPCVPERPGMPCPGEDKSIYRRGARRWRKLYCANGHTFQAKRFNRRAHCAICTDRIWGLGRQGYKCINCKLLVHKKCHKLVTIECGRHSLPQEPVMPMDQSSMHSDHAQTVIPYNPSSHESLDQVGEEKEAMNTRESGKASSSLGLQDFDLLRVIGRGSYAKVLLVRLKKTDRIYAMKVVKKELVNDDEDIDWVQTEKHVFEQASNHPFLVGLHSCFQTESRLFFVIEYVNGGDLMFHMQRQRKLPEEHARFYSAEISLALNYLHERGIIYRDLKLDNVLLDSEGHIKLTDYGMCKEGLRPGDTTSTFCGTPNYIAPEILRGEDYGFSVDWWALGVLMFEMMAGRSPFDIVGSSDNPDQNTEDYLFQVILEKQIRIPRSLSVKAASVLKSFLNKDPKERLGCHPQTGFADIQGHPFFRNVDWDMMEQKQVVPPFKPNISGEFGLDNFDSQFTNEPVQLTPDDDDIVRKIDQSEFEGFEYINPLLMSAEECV
Method: (§1) The compounds of formula 1 are tested for their activity on different protein kinases and PKC isoforms using a scintillation proximity assay (SPA, Amersham International plc). ^33P-labeled peptides are captured onto streptavidin coated yttrium silicate SPA beads. β-particles, emitted from the captured ^33P-labeled substrate in close proximity to the bead are able to excite the scintillant, resulting in the generation of quantifiable light. The assay is performed in a 96-well polystyrene microtiterplate (1450-514, Isoplates, Wallac, Turku, Finland). The reaction mixture (50 μl) contains 10 μl of the test compound together with 10 μl of the relevant kinase, diluted in the relevant dilution buffer, 5 μl of 10 μM phorbol myristate acetate (PMA) in H2O, 5 μl of 1.6 mM phosphatidylserine (Sigma-Aldrich Chemie GmbH, Stein-heim, Germany) in 20 mM Tris/HCL buffer pH 7.4, 5 μl of 0.3% BSA in H2O, 5 μl of 30 μM relevant substrate and 10 μl of 5 μM ATP and 0.1 μCi of ^33P-ATP (Amersham, Freiburg, Germany) in 200 mM Tris/HCL pH 7.5 and 200 mM MgCl2. Incubation is performed for 40 min at room temperature (RT) without shaking. Reaction is stopped by adding 150 μl of cold stop solution containing 10 mM ATP, 5 mM EGTA pH 7.5, 0.1% Triton X-100 and 0.2 mg streptavidin coated yttrium silicate SPA beads (Amersham, RPNQ 0012). The sealed plate is incubated for 60 min at RT. Thereafter the MTP is counted in a Microbeta Jet (Wallac). IC50 measurement is performed on a routine basis by incubation a serial dilution of inhibitor at concentrations ranging between 0.01 and 100 μM according to the method described above. Background values are the signals of the reaction mixture without addition of the relevant kinase and are subtracted from all values. 100% values are the signals of the reaction mixture without addition of inhibitors.
Dependent on the efficacy of the inhibitors In the various test systems, corresponding IC50 values are calculated from concentration-inhibition curves by nonlinear regression analysis using the program GraphPad Prism (GraphPad Software Inc., San Diego, Calif.). […]

PKCβ1 = target: T3, PKCβ1 (Homo sapiens, UniProt P05771); assay: Protein Kinase Cβ1 assay (SPA); type: biochemical; conditions: human recombinant PKCβ1, SPA, biotinylated PKCα pseudosubstrate, 0.5 mM CaCl2; read-out: IC50, inhibition of PKC β1
T3 construct: purchased Panvera
Method: as §1
Dependent on the efficacy of the inhibitors In the various test systems, corresponding IC50 values are calculated from concentration-inhibition curves by nonlinear regression analysis using the program GraphPad Prism (GraphPad Software Inc., San Diego, Calif.).
Human recombinant PKCβ1 was obtained from Panvera and is used under the assay conditions as described above (Section A.1). The enzyme is diluted in PKC dilution buffer containing 1 mM Hepes pH 7.4, 0.5 mM DTT and 0.001% Triton X-100. The assay additionally contains 0.5 mM CaCl2. The kinase reaction is performed with the biotinylated PKCα pseudosubstrate solved in H2O. The examples 29, 45, 52, 128 and 139 inhibit PKC β1 in this assay with an IC50 between 2 and 40 μM.

responder T cells = assay: Mixed lymphocyte reaction (MLR), T cell proliferation; type: cell-based; conditions: [3H]thymidine incorporation after 48 h, read-out: IC50, inhibition of MLR-mediated T-cell proliferation
Method: For MLR cultures 4×10^5 responder T cells are incubated in duplicates with 2×10^5 mitomycin C-treated allogeneic stimulator T cells in a total volume of 200 μl RPMI 1640 medium supplemented with 10% FCS, 2 mM L-glutamine, 100 U/ml penicillin and 100 μg/ml streptomycin (Gibco Life Technologies) in 96 well tissue culture plates (655180, flat bottom, Greiner). Cells are maintained at 37° C. in a humidified atmosphere of 5% CO2. After 48 h of growth, cells are pulsed with 1 μCi [^3H]thymidine and incorporation of [^3H]thymidine is measured with a Topcount radioactive counter (Packard). To investigate the effect of a test compound on MLR-mediated T cell proliferation six three-fold dilution steps in duplicates per test compound are performed (final DMSO concentration 0.1%). Low control values are the proliferation of responder cells alone; high controls are from mixed lymphocyte cells without any test samples. Low controls are subtracted from all values. The inhibition obtained in the presence of a test compound is calculated as percent Inhibition of the high control. The concentration of test compounds resulting in 50% inhibition (IC50) is determined from the dose-response curves. The examples 91, 128, 133 and 137 inhibit MLR-mediated T-cell proliferation in this assay with an IC50<1 μM.

Lck = target: T4, Lck (Homo sapiens, UniProt P06239); assay: Lck (p56Lck) assay (SPA); type: biochemical; conditions: human recombinant Lck, read-out: IC50, inhibition of Lck
T4 construct: purchased Upstate (Dundee, UK)
Method: The compounds of formula 1 are tested for their activity on different protein kinases and PKC isoforms using a scintillation proximity assay (SPA, Amersham International plc). ^33P-labeled peptides are captured onto streptavidin coated yttrium silicate SPA beads. β-particles, emitted from the captured ^33P-labeled substrate in close proximity to the bead are able to excite the scintillant, resulting in the generation of quantifiable light. The assay is performed in a 96-well polystyrene microtiterplate (1450-514, Isoplates, Wallac, Turku, Finland). The reaction mixture (50 μl) contains 10 μl of the test compound together with 10 μl of the relevant kinase, diluted in the relevant dilution buffer, 5 μl of 10 μM phorbol myristate acetate (PMA) in H2O, 5 μl of 1.6 mM phosphatidylserine (Sigma-Aldrich Chemie GmbH, Stein-heim, Germany) in 20 mM Tris/HCL buffer pH 7.4, 5 μl of 0.3% BSA in H2O, 5 μl of 30 μM relevant substrate and 10 μl of 5 μM ATP and 0.1 μCi of ^33P-ATP (Amersham, Freiburg, Germany) in 200 mM Tris/HCL pH 7.5 and 200 mM MgCl2. […] Thereafter the MTP is counted in a Microbeta Jet (Wallac). […]
Human recombinant Lck was obtained from Upstate (Dundee, UK) and is used in a scintillation proximity assay described in Section A.1. […] Thereafter the MTP is counted in a Microbeta Jet (Wallac). […] IC50 values are calculated from the graph by sigmoidal curve fitting. […]

T1 sequence (Q15418 whole entry): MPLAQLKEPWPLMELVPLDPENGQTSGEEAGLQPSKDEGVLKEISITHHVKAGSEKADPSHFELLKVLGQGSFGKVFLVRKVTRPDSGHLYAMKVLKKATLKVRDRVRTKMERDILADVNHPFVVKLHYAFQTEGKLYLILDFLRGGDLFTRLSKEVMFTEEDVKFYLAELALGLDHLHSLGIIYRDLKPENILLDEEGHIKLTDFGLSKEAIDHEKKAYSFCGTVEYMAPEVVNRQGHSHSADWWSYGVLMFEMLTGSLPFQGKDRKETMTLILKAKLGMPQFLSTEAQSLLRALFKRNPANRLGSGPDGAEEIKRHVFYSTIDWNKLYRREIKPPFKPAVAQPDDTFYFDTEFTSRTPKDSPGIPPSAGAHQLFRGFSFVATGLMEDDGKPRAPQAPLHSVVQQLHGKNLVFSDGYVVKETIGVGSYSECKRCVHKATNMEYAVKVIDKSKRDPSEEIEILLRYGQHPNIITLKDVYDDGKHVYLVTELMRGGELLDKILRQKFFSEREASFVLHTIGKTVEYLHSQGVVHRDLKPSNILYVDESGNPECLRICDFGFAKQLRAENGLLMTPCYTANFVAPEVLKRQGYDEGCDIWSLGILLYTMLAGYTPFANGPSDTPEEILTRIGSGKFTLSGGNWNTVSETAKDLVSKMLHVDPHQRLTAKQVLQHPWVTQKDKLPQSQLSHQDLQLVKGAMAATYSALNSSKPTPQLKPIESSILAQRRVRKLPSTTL
T3 sequence (P05771 whole entry): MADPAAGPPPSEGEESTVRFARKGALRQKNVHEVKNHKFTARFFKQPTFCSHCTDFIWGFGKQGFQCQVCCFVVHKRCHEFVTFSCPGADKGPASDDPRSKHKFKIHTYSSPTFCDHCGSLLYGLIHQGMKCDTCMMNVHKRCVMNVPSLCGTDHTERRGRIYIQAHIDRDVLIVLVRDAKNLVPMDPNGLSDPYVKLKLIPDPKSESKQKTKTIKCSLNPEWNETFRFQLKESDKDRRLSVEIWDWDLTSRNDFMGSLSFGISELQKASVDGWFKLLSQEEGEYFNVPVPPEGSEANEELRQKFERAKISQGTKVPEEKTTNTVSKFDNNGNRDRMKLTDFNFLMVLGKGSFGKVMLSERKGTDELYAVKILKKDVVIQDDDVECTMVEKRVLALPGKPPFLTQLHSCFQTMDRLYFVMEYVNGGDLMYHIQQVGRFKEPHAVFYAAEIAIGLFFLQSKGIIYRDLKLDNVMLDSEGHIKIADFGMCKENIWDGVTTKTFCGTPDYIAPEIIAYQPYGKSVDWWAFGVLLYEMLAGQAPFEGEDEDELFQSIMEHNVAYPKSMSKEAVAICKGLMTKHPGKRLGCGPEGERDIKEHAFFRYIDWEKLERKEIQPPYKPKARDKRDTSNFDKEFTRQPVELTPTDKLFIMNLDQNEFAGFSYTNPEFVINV
T4 sequence (P06239 whole entry): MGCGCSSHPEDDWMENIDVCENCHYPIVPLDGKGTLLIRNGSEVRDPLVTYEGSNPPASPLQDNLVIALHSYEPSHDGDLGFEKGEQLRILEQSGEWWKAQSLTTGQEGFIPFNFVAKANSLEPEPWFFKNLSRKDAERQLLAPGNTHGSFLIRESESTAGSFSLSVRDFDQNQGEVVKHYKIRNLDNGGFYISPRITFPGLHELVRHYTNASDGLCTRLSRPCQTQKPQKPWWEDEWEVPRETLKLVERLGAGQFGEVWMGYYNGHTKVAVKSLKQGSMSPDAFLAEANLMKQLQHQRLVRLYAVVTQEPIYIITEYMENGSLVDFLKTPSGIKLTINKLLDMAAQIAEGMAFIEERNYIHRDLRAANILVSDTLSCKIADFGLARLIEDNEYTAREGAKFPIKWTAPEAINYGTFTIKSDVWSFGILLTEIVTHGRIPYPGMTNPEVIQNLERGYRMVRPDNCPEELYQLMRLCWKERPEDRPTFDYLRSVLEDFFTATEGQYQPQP

SMILES | IC50 (Rsk1) | IC50 (PKCι) | IC50 (PKCβ1) | IC50 (responder T cells) | IC50 (Lck)
CN(C)CCCn1ccc2cc(-c3cc(Nc4ccc(NS(=O)(=O)c5ccccc5F)cc4)ncn3)ccc21 [Example 129, N-(4-{6-[1-(3-Dimethylamino-propyl)-1H-indol-5-yl]-pyrimidin-4-ylamino}-phenyl)-2-fluorobenzenesulfonamide] | < 1000 nM | – | – | – | –
CCN(CC)CCCn1cc(-c2cc(Nc3ccc(NS(=O)(=O)c4c(F)cccc4F)cc3)ncn2)c2ccccc21 [Example 173, N-(4-{6-[1-(3-Diethylamino-propyl)-1H-indol-3-yl]-pyrimidin-4-ylamino}-phenyl)-2,6-difluoro-benzenesulfonamide formic acid salt] | < 1000 nM | 7000 to 34000 nM | – | – | –
CN(C)CCCn1ccc2cc(-c3cc(Nc4ccc(NS(=O)(=O)c5c(F)cccc5F)cc4)ncn3)ccc21 [Example 128, N-(4-{6-[1-(3-Dimethylamino-propyl)-1H-indol-5-yl]-pyrimidin-4-ylamino}-phenyl)-2,6-difluoro-benzenesulfonamide] | – | – | 2000 to 40000 nM | < 1000 nM | < 3000 nM
